Assay results as given in patent publication US5707679A, “Metal propionates for use as animal feed supplements” (priority 1995, dated 1998).
Read-outs that look alike come from different tables or passages of the source.

How the values were obtained:
[1] = Comparative zinc bioavailability trial in day-old broilers (growth, feed conversion, bone ash, tibia ash zinc, plasma zinc); conditions: for Relative Biological Availability: Feed conversion (corr.): 3-21 days; for Relative Biological Availability: Body weight gain / Relative Biological Availability: Bone ash / Relative Biological Availability: Ending body weight: 21 days
Description: Each zinc treatment was replicated eight times and each pen contained ten male birds.
Basal feeds and zinc compound were mixed in a horizontal feed mixer providing the desired ingredient composition as shown in Table 2. The broilers were fed the rations for 21 days. Feed weights were taken during the trial. Body weights were measured at the beginning and at the end of the trial. On day 21, zinc levels in the blood and tibia ash were determined. The assay procedures for total tibia zinc content or concentration to assess zinc utilization are similar to those used by Wedekind et al., J. Anim. Sci., 70:178-187 (1992). The data were analyzed according to the SAS statistical package.
Chick growth parameters and zinc levels in the blood and tibia ash were used as criteria to determine the biological availability of zinc. […] The biological availability of zinc sulfate was arbitrarily set at 100%.

[2] = Performance of finishing cattle (Study 1: weight, gain, feed intake, gain/feed); type: in vivo, Angus crossbred steers; set-up: Average daily gain: unit not given here; conditions: finishing steers; for Final weight / Initial weight: 25 ppm supplemental zinc; for Final weight: 140-day study; for Initial weight: baseline
Text: Fifty-six Angus crossbred steers were used in this study. Steers were purchased from either a feeder calf sale […] a preconditioned sale. Steers were blocked by sale type and weight, and then randomly assigned to a feed regimen. […] All regimens provided 25 ppm of supplemental zinc. Steers were housed in pens containing seven steers each.
Supplemental protein was supplied from a combination of soybean meal and urea. Steer weights were obtained on two consecutive days at the beginning and the end of the 140-day study. Interim weights were taken at 28-day intervals. Feed intake was measured daily. Blood and rumen fluid samples were obtained from 10 steers per treatment approximately two hours post feeding on day 42 of the study. Samples were analyzed for plasma and rumen fluid soluble zinc concentrations. Data were analyzed statistically by least square analysis of variance.

[3] = Performance of growing cattle (Study 2: weight, gain, feed intake, gain/feed); type: in vivo, Angus steers; conditions: for Average daily gain / Feed intake / Gain/feed / Final weight / Initial weight: growing steers; for Final weight / Initial weight: 25 ppm supplemental zinc; for Initial weight: baseline
Text: Thirty-six Angus steers with an average body weight of 268 kg were stratified by weight and randomly assigned to feed regimens. […] Zinc was supplemented in all treatments to provide 25 ppm of supplemental zinc.
Steers were housed in pens of 12 steers and individually fed using electronic gates. Each pen contained an equal number of steers from each dietary regimen. Steers were fed a basal corn silage-based growing diet supplemented with protein, minerals and vitamins. Diets were offered ad libitum.
Body weights were obtained on two consecutive days at the initiation and termination of the 112-day study. Interim weights were taken at 28-day intervals. Blood and rumen fluid samples were obtained on day 42 of the study for determination of plasma and rumen fluid soluble zinc concentrations. Data were statistically analyzed by least square analysis of variance.

[4] = cited from earlier work; for biological availability vs inorganic salts (in words): polyvalent metal ions from metal-amino acid complexes; for absorption of metal cations in the gastrointestinal tract (in words): in vivo
[5] = chickens; cited from earlier work
[6] = in vivo; cited from earlier work
[7] = bovine, in vivo; cited from earlier work
[8] = zinc sulfate arbitrarily set at 100%
[9] = day 21, zinc sulfate arbitrarily set at 100%
[10] = 0 to 28 days, propionate vs. sulfate P < 0.05, vs. methionine P < 0.10
[11] = 55 to 112 days (so in the source)
[12] = 0 to 28 days, propionate vs. methionine P < 0.05, vs. sulfate P < 0.10 (as footnoted)
[13] = 29 to 56 days, propionate vs. methionine P < 0.05
[14] = 29 to 56 days, propionate vs. sulfate P < 0.05, vs. methionine P < 0.10
[15] = 57 to 84 days, propionate vs. sulfate P < 0.10
[16] = Total (0 to 112 days), propionate vs. sulfate P < 0.05, vs. methionine P < 0.10

**Q.** With `CSCC[C@H](N)C(=O)O.O=S(=O)([O-])O.O=S(=O)([O-])O.[Zn+2]` [Zinc methionine, Zinc methionine bisulfate] as the compound, how does the “Relative Biological Availability: Feed conversion (corr.)” value [1, 8] read?
**A.** 90.38%

**Q.** What about the “Relative Biological Availability: Body weight gain” value [1, 8] of the same compound?
**A.** 131.52%

**Q.** What about the “Relative Biological Availability: Bone ash” value [1, 8] of the same compound?
**A.** 113.95%

**Q.** And the “Relative Biological Availability: Ending body weight” value [1, 8]?
**A.** 132.46%

**Q.** And the “levels of zinc in the blood and tibia ash (in words)” value ([1]; day 21)?
**A.** comparable levels of zinc in the blood and tibia ash

**Q.** What about the “Relative Biological Availability: Plasma Zinc” value [1, 9] of the same compound?
**A.** 124.00%

**Q.** What about the “Relative Biological Availability: Tibia ash zinc” value [1, 9] of the same compound?
**A.** 123.99%

**Q.** What about the Average daily gain ([2]; 0 to 28 days) of the same compound?
**A.** 1.32

**Q.** And the Feed intake ([2]; 0 to 28 days)?
**A.** 6.35 kg/day

**Q.** And the Gain/feed [2, 10]?
**A.** 0.208

**Q.** What about the Final weight [2] of the same compound?
**A.** 487.6 kg

**Q.** And the Initial weight [2]?
**A.** 304.7 kg

**Q.** And the Average daily gain ([2]; 29 to 56 days)?
**A.** 1.45

**Q.** What about the Feed intake ([2]; 29 to 56 days) of the same compound?
**A.** 7.76 kg/day

**Q.** And the Gain/feed ([2]; 29 to 56 days)?
**A.** 0.186

**Q.** What about the Gain/feed [2, 11] of the same compound?
**A.** 0.115

**Q.** And the Average daily gain ([2]; 57 to 84 days)?
**A.** 1.57

**Q.** What about the Feed intake ([2]; 57 to 84 days) of the same compound?
**A.** 6.43 kg/day

**Q.** And the Gain/feed ([2]; 57 to 84 days)?
**A.** 0.244

**Q.** And the Average daily gain ([2]; 85 to 112 days)?
**A.** 0.97

**Q.** What about the Feed intake ([2]; 85 to 112 days) of the same compound?
**A.** 8.51 kg/day

**Q.** And the Average daily gain ([2]; 113 to 140 days)?
**A.** 1.22

**Q.** And the Feed intake ([2]; 113 to 140 days)?
**A.** 6.59 kg/day

**Q.** And the Gain/feed ([2]; 113 to 140 days)?
**A.** 0.184

**Q.** What about the Average daily gain ([2]; Total (0 to 140 days)) of the same compound?
**A.** 1.31

**Q.** What about the Feed intake ([2]; Total (0 to 140 days)) of the same compound?
**A.** 7.13 kg/day

**Q.** What about the Gain/feed ([2]; Total (0 to 140 days)) of the same compound?
**A.** 0.183

**Q.** And the “gains, second 28-day period (in words)” value ([3]; 29 to 56 days, methionine vs propionate (P<0.05))?
**A.** gains were greater (P<0.05) in steers fed zinc methionine compared with those fed zinc propionate

**Q.** And the “Gains for the entire study (in words)” value ([3]; 112-day study)?
**A.** tended to be higher for steers fed zinc methionine

**Q.** And the Average daily gain ([3]; 0 to 28 days)?
**A.** 1.33 kg

**Q.** What about the Feed intake ([3]; 0 to 28 days) of the same compound?
**A.** 8.11 kg/day

**Q.** What about the Gain/feed [3, 12] of the same compound?
**A.** 0.164

**Q.** And the Final weight ([3]; 112-day study)?
**A.** 399.6 kg

**Q.** What about the Initial weight [3] of the same compound?
**A.** 267.7 kg

**Q.** And the Feed intake ([3]; 29 to 56 days)?
**A.** 9.03 kg/day

**Q.** What about the Average daily gain [3, 13] of the same compound?
**A.** 1.18 kg

**Q.** What about the Gain/feed [3, 14] of the same compound?
**A.** 0.132

**Q.** What about the Average daily gain ([3]; 57 to 84 days) of the same compound?
**A.** 0.87 kg

**Q.** And the Gain/feed ([3]; 57 to 84 days)?
**A.** 0.104

**Q.** And the Feed intake [3, 15]?
**A.** 8.62 kg/day

**Q.** And the Average daily gain ([3]; 85 to 112 days)?
**A.** 1.34 kg

**Q.** What about the Feed intake ([3]; 85 to 112 days) of the same compound?
**A.** 8.56 kg/day

**Q.** And the Gain/feed ([3]; 85 to 112 days)?
**A.** 0.158

**Q.** And the Average daily gain ([3]; Total (0 to 112 days))?
**A.** 1.18 kg

**Q.** What about the Feed intake ([3]; Total (0 to 112 days)) of the same compound?
**A.** 8.58 kg/day

**Q.** And the Gain/feed [3, 16]?
**A.** 0.139

**Q.** And the “feed consumption (in words)” value ([3]; total study period, vs zinc sulfate (P<0.10))?
**A.** consumed more (P<0.10) feed over the total study period than steers fed zinc sulfate

**Q.** And the “biological availability vs inorganic salts (in words)” value [4]?
**A.** more biologically available to the animal than are the same ions provided from inorganic salts

**Q.** Which results are given for `O=S(=O)([O-])[O-].[Zn+2]` [Zinc sulfate]?
**A.** Relative Biological Availability: Feed conversion (corr.) [1, 8]: 100.00%; Relative Biological Availability: Body weight gain [1, 8]: 100.00%; Relative Biological Availability: Bone ash [1, 8]: 100.00%; Relative Biological Availability: Ending body weight [1, 8]: 100.00%; Relative Biological Availability: Plasma Zinc ([1]; chicken, in vivo, 30240 min): 100.00%; Relative Biological Availability: Tibia ash zinc ([1]; chicken, in vivo, 30240 min): 100.00%; Average daily gain ([2]; 0 to 28 days): 1.26; Feed intake ([2]; 0 to 28 days): 6.28 kg/day; Gain/feed [2, 10]: 0.201; Final weight [2]: 489.6 kg; Initial weight [2]: 303.0 kg; Average daily gain ([2]; 29 to 56 days): 1.46; Feed intake ([2]; 29 to 56 days): 7.51 kg/day; Gain/feed ([2]; 29 to 56 days): 0.195; Gain/feed [2, 11]: 0.142; Average daily gain ([2]; 57 to 84 days): 1.52; Feed intake ([2]; 57 to 84 days): 6.21 kg/day; Gain/feed ([2]; 57 to 84 days): 0.244; Average daily gain ([2]; 85 to 112 days): 1.19; Feed intake ([2]; 85 to 112 days): 8.33 kg/day; Average daily gain ([2]; 113 to 140 days): 1.24; Feed intake ([2]; 113 to 140 days): 6.60 kg/day; Gain/feed ([2]; 113 to 140 days): 0.189; Average daily gain ([2]; Total (0 to 140 days)): 1.33; Feed intake ([2]; Total (0 to 140 days)): 6.99 kg/day; Gain/feed ([2]; Total (0 to 140 days)): 0.191; Average daily gain ([3]; 0 to 28 days): 1.34 kg; Feed intake ([3]; 0 to 28 days): 7.67 kg/day; Gain/feed [3, 12]: 0.178; Final weight ([3]; 112-day study): 391.8 kg; Initial weight [3]: 265.5 kg; Feed intake ([3]; 29 to 56 days): 8.13 kg/day; Average daily gain [3, 13]: 1.10 kg; Gain/feed [3, 14]: 0.137; Average daily gain ([3]; 57 to 84 days): 0.72 kg; Gain/feed ([3]; 57 to 84 days): 0.095; Feed intake [3, 15]: 7.62 kg/day; Average daily gain ([3]; 85 to 112 days): 1.36 kg; Feed intake ([3]; 85 to 112 days): 7.86 kg/day; Gain/feed ([3]; 85 to 112 days): 0.174; Average daily gain ([3]; Total (0 to 112 days)): 1.13 kg; Feed intake ([3]; Total (0 to 112 days)): 7.82 kg/day; Gain/feed [3, 16]: 0.145

**Q.** Which “toxicity (in words)” value [5] does the source give for `CC(=O)[O-].CC(=O)[O-].[Zn+2]` [zinc acetate, Zinc acetate] here?
**A.** toxic to chickens

**Q.** For `O=C([O-])CC(O)(CC(=O)[O-])C(=O)[O-].O=C([O-])CC(O)(CC(=O)[O-])C(=O)[O-].[Zn+2].[Zn+2].[Zn+2]` [zinc citrate], which “absorption of metal cations in the gastrointestinal tract (in words)” value [4] is on record?
**A.** variable results, enhancing absorption in one study and having no effect in others

**Q.** For `NCCCC[C@H](N)C(=O)O.[Zn]` [zinc-lysine], which “biological availability vs inorganic salts (in words)” value [4] is on record?
**A.** more biologically available to the animal than are the same ions provided from inorganic salts

**Q.** For zinc picolinate, which “absorption of metal cations in the gastrointestinal tract (in words)” value [4] is on record?
**A.** variable results, enhancing absorption in one study and having no effect in others

**Q.** And the “absorption of zinc (in words)” value [6]?
**A.** enhance the absorption of zinc in humans and rats

**Q.** What about the “absorption of zinc (in words)” value [7] of the same compound?
**A.** not in cattle
